{
  "source": "patent US5684032A",
  "about": "“Compounds” (SmithKline Beecham Corporation, priority 1995, dated 1997)",
  "key": {"[1]": {"tested_on": "recombinant human IL-8 type β receptor (IL-8Rβ, Type II, permissive receptor)", "assay": "[125I] IL-8 receptor binding assay, IL-8Rβ (Type II, permissive) CHO membranes", "settings": "IL-8Rβ (type II) receptor binding assay", "excerpt": "(§1) [^125 I] IL-8 (human recombinant) was obtained from Amersham Corp., Arlington Heights, Ill., with specific activity 2000 Ci/mmol. All other chemicals were of analytical grade. High levels of recombinant human IL-8 type α and β receptors were individually expressed in Chinese hamster ovary cells as described previously (Holmes, et al., Science, 1991, 253, 1278). The Chinese hamster ovary membranes were homogenized according to a previously described protocol (Kraft, et al., Nature, 1983, 301, 621). Membrane protein concentration was determined using Pierce Co. micro-assay kit using bovine serum albumin as a standard. All assays were performed in a 96-well micro plate format. Each reaction mixture contained ^125 I IL-8 (0.25 nM), 0.5 μg/mL of IL-8Rα or 1.0 μg/mL of IL-8Rβ membranes in 20 mM Bis-Trispropane and 0.4 mM Tris HCl buffers, pH 8.0, containing 1.2 mM MgSO4, 0.1 mM EDTA, 25 mM NaCl and 0.03% CHAPS plus peptide at relevant concentrations. The assay was initiated by addition of ^125 I-IL-8. After 1 hour at room temperature the plate was harvested using a Tomtec 96-well harvester onto a glass fiber filtermat blocked with 1% polyethyleneimine/0.5% BSA and washed 3 times with 25 mM NaCl, 10 mM TrisHCl, 1 mM MgSO4, 0.5 mM EDTA, 0.03% CHAPS, pH 7.4. The filter was then dried and counted on the Betaplate liquid scintillation counter. […]"}, "[2]": {"tested_on": "recombinant human IL-8 type α receptor (IL-8Rα, Type I, non-permissive receptor)", "assay": "[125I] IL-8 receptor binding assay, IL-8Rα (Type I, non-permissive) CHO membranes", "settings": "IL-8Rα (type I) receptor binding assay", "excerpt": "as §1"}},
  "data": [
    {"smiles": "O=C(O)c1c(-c2ccccc2)c2ccccc2n1Cc1ccc(OC(F)(F)F)cc1", "values": [
      {"measurement": "inhibition of IL-8 binding, result in words", "setting": "[1]", "value": "not active"},
      {"measurement": "inhibition of IL-8 binding, result in words", "setting": "[2]", "value": "not active"}
    ]}
  ]
}
